Measurements: patent publication EP4725941A1, “ARYLAMIDE DERIVATIVE HAVING ANTITUMOR ACTIVITY” (priority 2020, dated 2021)
Where two headings read alike, the source gives them in different places.

How the values were obtained:
MEK1 = target: T1, MEK1 (Homo sapiens, UniProt Q02750); assay: MEK1-inhibiting activity, fluorescent polarization method (CRAF/MEK1/ERK2 cascade, IMAP); format: biochemical; conditions: Table 3; read-out: MEK1 IC50
T1 construct: purchased Thermo Fisher Scientific Inc. (MEK1, CRAF); Carna Biosciences, Inc. (ERK2)
Description: The MEK1-inhibiting activity of the compounds listed in Table 3 below were evaluated by the fluorescent polarization method as described below.

[1] = Human liver microsome stability; format: in vitro ADME; conditions: human liver microsomes, pH 7.4
NCI-H2122 = assay: Cell proliferation-inhibiting activity (ATP in viable cells, CellTiter-Glo), NCI-H2122; format: cell-based, human; conditions: read-out: NCI-H2122 IC50
Calu-6 = assay: Cell proliferation-inhibiting activity (ATP in viable cells, CellTiter-Glo), Calu-6; format: cell-based, human; conditions: read-out: Calu-6 IC50
BRAF = target: T2, BRAF (Homo sapiens, UniProt P15056); assay: BRAF-inhibiting activity, time-resolved fluorescence-fluorescence resonance energy transfer assay; format: biochemical
T2 construct: purchased Eurofins Genomics KK; (BRAF); Thermo Fisher Scientific Inc. (MEK1)
Description: The BRAF-inhibiting activity of the compounds listed in Table 3 below was evaluated by the time-resolved fluorescence-fluorescence resonance energy transfer assay as described below.

A549 = assay: Cell proliferation-inhibiting activity (ATP in viable cells, CellTiter-Glo), A549; format: cell-based, human; conditions: A549, 96 h, read-out: A549 IC50
[2] = human lung cancer cells, 4 days
[3] = NCI-H2122, 96 h, human lung cancer cells, 4 days

T1 sequence (Q02750 whole entry): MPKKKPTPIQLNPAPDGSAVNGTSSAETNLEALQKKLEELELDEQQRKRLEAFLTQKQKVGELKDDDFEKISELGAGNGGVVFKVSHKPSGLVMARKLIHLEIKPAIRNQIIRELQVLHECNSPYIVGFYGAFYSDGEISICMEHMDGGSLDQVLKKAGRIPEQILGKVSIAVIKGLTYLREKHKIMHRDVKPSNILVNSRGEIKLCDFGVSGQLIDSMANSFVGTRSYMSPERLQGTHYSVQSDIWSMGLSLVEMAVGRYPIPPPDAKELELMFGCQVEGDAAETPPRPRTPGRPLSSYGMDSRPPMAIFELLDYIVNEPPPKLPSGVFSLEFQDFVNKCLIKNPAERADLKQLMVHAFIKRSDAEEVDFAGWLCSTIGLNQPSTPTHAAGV
T2 sequence (P15056 417-766 limits assumed): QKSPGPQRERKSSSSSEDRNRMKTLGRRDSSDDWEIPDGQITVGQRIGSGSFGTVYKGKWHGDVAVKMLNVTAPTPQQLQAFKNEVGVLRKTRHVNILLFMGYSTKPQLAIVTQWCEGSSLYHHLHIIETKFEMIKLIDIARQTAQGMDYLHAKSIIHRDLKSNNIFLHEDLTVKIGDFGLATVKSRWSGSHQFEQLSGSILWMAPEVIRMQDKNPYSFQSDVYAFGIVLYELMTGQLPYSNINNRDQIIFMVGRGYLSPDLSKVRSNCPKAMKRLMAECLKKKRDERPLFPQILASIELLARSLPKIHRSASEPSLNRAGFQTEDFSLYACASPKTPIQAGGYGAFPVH

CC1(NS(=O)(=O)Nc2nccc(Cc3cc(C(N)=O)c(Nc4ccc(C5CC5)cc4F)c(F)c3F)c2F)CCC1 [Compound A-46, 2-(4-Cyclopropyl-2-fluoroanilino)-3,4-difluoro-5-[[3-fluoro-2-[(1-methylcyclobutyl)sulfamoylamino]pyridin-4-yl]methyl]benzamide]
IC50 (MEK1): 0.811 µM | microsomal CLint at 0.99 µM [1]: 23 µL/min/mg | IC50 (NCI-H2122; Homo sapiens, NCI-H2122, 96 h): 0.031 µM | IC50 (Calu-6; Homo sapiens, Calu-6, 96 h): 0.367 µM | IC50 (BRAF; Table 3; read-out: BRAF IC50): 0.03 µM

CCS(=O)(=O)Nc1cccc(Cc2cc(C(=O)NC3CC3)c(Nc3ccc(I)cc3F)c(F)c2F)c1F [Compound D-8, N-Cyclopropyl-5-[[3-(ethylsulfonylamino)-2-fluorophenyl]methyl]-3,4-difluoro-2-(2-fluoro-4-iodoanilino)benzamide]
IC50 (MEK1): 0.161 µM | IC50 (A549; [2]): 0.066 µM | microsomal CLint at 0.99 µM [1]: 20 µL/min/mg | IC50 (NCI-H2122; [3]): 0.008 µM | IC50 (BRAF; read-out: BRAF IC50; Table 3): 0.021 µM

NC(=O)c1cc(Cc2cccc(NS(N)(=O)=O)c2F)c(F)c(F)c1Nc1ccc(I)cc1F [Compound E-8, 3,4-Difluoro-2-(2-fluoro-4-iodoanilino)-5-[[2-fluoro-3-(sulfamoylamino)phenyl]methyl]benzamide]
IC50 (MEK1): 0.137 µM | IC50 (A549; [2]): 0.003 µM | microsomal CLint at 0.99 µM [1]: 1 µL/min/mg | IC50 (NCI-H2122; [3]): 0.002 µM | IC50 (BRAF; read-out: BRAF IC50; Table 3): 0.002 µM

NC(=O)c1cc(Cc2cccc(NS(=O)(=O)CCCF)c2F)c(F)c(F)c1Nc1ccc(I)cc1F [Compound E-15, 3,4-Difluoro-5-[[2-fluoro-3-(3-fluoropropylsulfonylamino)phenyl]methyl]-2-(2-fluoro-4-iodoanilino)benzamide]
IC50 (MEK1): 0.287 µM | IC50 (A549; [2]): 0.02 µM | microsomal CLint at 0.99 µM [1]: 21 µL/min/mg | IC50 (NCI-H2122; [3]): 0.007 µM | IC50 (BRAF; read-out: BRAF IC50; Table 3): 0.004 µM

CCCS(=O)(=O)Nc1cccc(Cc2cc(C(N)=O)c(Nc3ccc(I)cc3F)c(F)c2F)c1F [Compound E-18, 3,4-Difluoro-2-(2-fluoro-4-iodoanilino)-5-[[2-fluoro-3-(propylsulfonylamino)phenyl]methyl]benzamide]
IC50 (MEK1): 0.366 µM | IC50 (A549; [2]): 0.007 µM | microsomal CLint at 0.99 µM [1]: 29 µL/min/mg | IC50 (NCI-H2122; [3]): 0.008 µM | IC50 (BRAF; read-out: BRAF IC50; Table 3): 0.005 µM

NC(=O)c1cc(Cc2cccc(NS(=O)(=O)C3CCC3)c2F)c(F)c(F)c1Nc1ccc(I)cc1F [Compound E-20, 5-[[3-(Cyclobutylsulfonylamino)-2-fluorophenyl]methyl]-3,4-difluoro-2-(2-fluoro-4-iodoanilino)benzamide]
IC50 (MEK1): 0.467 µM | IC50 (A549; [2]): 0.037 µM | microsomal CLint at 0.99 µM [1]: 18 µL/min/mg | IC50 (NCI-H2122; [3]): 0.011 µM | IC50 (BRAF; read-out: BRAF IC50; Table 3): 0.013 µM

NC(=O)c1cc(Cc2cccc(NS(=O)(=O)C3COC3)c2F)c(F)c(F)c1Nc1ccc(I)cc1F [Compound E-21]
IC50 (MEK1): 0.189 µM | IC50 (A549; [2]): 0.03 µM | microsomal CLint at 0.99 µM [1]: 13 µL/min/mg | IC50 (NCI-H2122; [3]): 0.014 µM | IC50 (BRAF; read-out: BRAF IC50; Table 3): 0.024 µM

CS(=O)(=O)Nc1cccc(Cc2cc(C(=O)NC3CC3)c(Nc3ccc(I)cc3F)c(F)c2F)c1F [Compound E-25, N-Cyclopropyl-3,4-difluoro-2-(2-fluoro-4-iodoanilino)-5-[[2-fluoro-3-(methanesulfonamide)phenyl]methyl]benzamide]
IC50 (MEK1): 0.284 µM | IC50 (NCI-H2122; [2]): 0.007 µM | IC50 (Calu-6; [2]): 0.028 µM | IC50 (BRAF; Table 3; read-out: BRAF IC50): 0.011 µM

CNS(=O)(=O)Nc1cccc(Cc2cc(C(N)=O)c(Nc3ccc(I)cc3F)c(F)c2F)c1 [Compound F-1, 3,4-Difluoro-2-(2-fluoro-4-iodoanilino)-5-[[3-(methylsulfamoylamino)phenyl]methyl]benzamide]
IC50 (MEK1): 0.246 µM | IC50 (A549; [2]): 0.007 µM | microsomal CLint at 0.99 µM [1]: 10 µL/min/mg | IC50 (NCI-H2122; [3]): 0.003 µM | IC50 (BRAF; read-out: BRAF IC50; Table 3): 0.005 µM

COCCS(=O)(=O)Nc1cccc(Cc2cc(C(N)=O)c(Nc3ccc(I)cc3F)c(F)c2F)c1 [Compound F-3, 3,4-Difluoro-2-(2-fluoro-4-iodoanilino)-5-[[3-(2-methoxyethylsulfonylamino)phenyl]methyl]benzamide]
IC50 (MEK1): 0.38 µM | IC50 (A549; [2]): 0.008 µM | microsomal CLint at 0.99 µM [1]: 28 µL/min/mg | IC50 (NCI-H2122; [3]): 0.024 µM | IC50 (BRAF; read-out: BRAF IC50; Table 3): 0.005 µM

CNS(=O)(=O)Nc1nccc(Cc2cc(C(=O)NOC)c(Nc3ccc(Cl)cc3F)c(F)c2F)c1F [Compound G-4, 2-(4-Chloro-2-fluoroanilino)-3,4-difluoro-5-[[3-fluoro-2-(methylsulfamoylamino)pyridin-4-yl]methyl]-N-methoxybenzamide]
IC50 (MEK1): 0.053 µM | IC50 (A549; [2]): 0.028 µM | microsomal CLint at 0.99 µM [1]: 26 µL/min/mg | IC50 (NCI-H2122; [3]): 0.012 µM | IC50 (BRAF; read-out: BRAF IC50; Table 3): 0.004 µM

CNS(=O)(=O)Nc1nccc(Cc2cc(C(N)=O)c(Nc3ccc4sccc4c3)c(F)c2F)c1F [Compound H-2, 2-(1-Benzothiophen-5-ylamino)-3,4-difluoro-5-[[3-fluoro-2-(methylsulfamoylamino)pyridin-4-yl]methyl]benzamide]
IC50 (MEK1): 0.049 µM | IC50 (A549; [2]): 0.031 µM | microsomal CLint at 0.99 µM [1]: 77 µL/min/mg | IC50 (NCI-H2122; [3]): 0.016 µM | IC50 (BRAF; read-out: BRAF IC50; Table 3): 0.002 µM

CNS(=O)(=O)Nc1cccc(Cc2cc(C(N)=O)c(Nc3ccc(I)cc3F)c(F)c2F)n1 [Compound H-5, 3,4-Difluoro-2-(2-fluoro-4-iodoanilino)-5-[[6-(methylsulfamoylamino)pyridin-2-yl]methyl]benzamide]
IC50 (MEK1): 0.115 µM | IC50 (A549; [2]): 0.006 µM | microsomal CLint at 0.99 µM [1]: 26 µL/min/mg | IC50 (NCI-H2122; [3]): 0.004 µM | IC50 (BRAF; read-out: BRAF IC50; Table 3): 0.002 µM

CCNS(=O)(=O)Nc1nccc(Cc2cc(C(N)=O)c(Nc3ccc(I)cc3F)cc2F)c1F [Compound I-2, 5-[[2-(Ethylsulfamoylamino)-3-fluoropyridin-4-yl]methyl]-4-fluoro-2-(2-fluoro-4-iodoanilino)benzamide]
IC50 (MEK1): 0.047 µM | IC50 (A549; [2]): 0.025 µM | microsomal CLint at 0.99 µM [1]: 12 µL/min/mg | IC50 (NCI-H2122; [3]): 0.011 µM | IC50 (BRAF; read-out: BRAF IC50; Table 3): 0.003 µM

CCS(=O)(=O)Nc1cccc(Cc2cc(C(=O)NC3CC3)c(Nc3ccc(I)cc3F)n(C)c2=O)c1F [Compound K-8, N-Cyclopropyl-5-[[3-(ethylsulfonylamino)-2-fluorophenyl]methyl]-2-(2-fluoro-4-iodoanilino)-1-methyl-6-oxopyridine-3-carboxamide]
IC50 (MEK1): 0.209 µM | IC50 (A549; [2]): 0.068 µM | microsomal CLint at 0.99 µM [1]: 103 µL/min/mg | IC50 (NCI-H2122; [3]): 0.029 µM | IC50 (BRAF; read-out: BRAF IC50; Table 3): 0.014 µM

CNS(=O)(=O)Nc1nccc(Cn2cc(C(N)=O)c(Nc3ccc(I)cc3F)c(F)c2=O)c1F [Compound N-1, 5-Fluoro-4-(2-fluoro-4-iodoanilino)-1-[[3-fluoro-2-(methylsulfamoylamino)pyridin-4-yl]methyl]-6-oxopyridine-3-carboxamide]
IC50 (MEK1): 0.001 µM | IC50 (A549; [2]): 0.02 µM | microsomal CLint at 0.99 µM [1]: 8 µL/min/mg | IC50 (NCI-H2122; [3]): 0.028 µM | IC50 (BRAF; read-out: BRAF IC50; Table 3): 0.002 µM

CNS(=O)(=O)Nc1nccc(Cn2cc(C(N)=O)c(Nc3ccc(SC)cc3F)c(F)c2=O)c1F [Compound N-3, 5-Fluoro-1-[[3-fluoro-2-(methylsulfamoylamino)pyridin-4-yl]methyl]-4-(2-fluoro-4-methylsulfanylanilino)-6-oxopyridine-3-carboxamide]
IC50 (MEK1): 0.004 µM | IC50 (A549; Homo sapiens): 0.475 µM | microsomal CLint at 0.99 µM [1]: 19 µL/min/mg | IC50 (NCI-H2122; Homo sapiens, NCI-H2122, 96 h): 0.311 µM | IC50 (BRAF; Table 3; read-out: BRAF IC50): 0.005 µM

CNS(=O)(=O)Nc1nccc(Cn2cc(C(N)=O)c(Nc3ccc(I)cc3F)c(C)c2=O)c1F [Compound P-1, 4-(2-Fluoro-4-iodoanilino)-1-[[3-fluoro-2-(methylsulfamoylamino)pyridin-4-yl]methyl]-5-methyl-6-oxopyridine-3-carboxamide]
IC50 (MEK1): 0.002 µM | microsomal CLint at 0.99 µM [1]: 15 µL/min/mg | IC50 (NCI-H2122; [3]): 0.006 µM | IC50 (Calu-6; Calu-6, 96 h, human lung cancer cells, 4 days): 0.022 µM
